The numbers were not newly measured in patent publication US8410057B2, “Method of inducing T cell apoptosis by administering Altered Peptide Ligand” (Centro de Ingenieria Genetica y Biotecnologia, priority 2008, dated 2013), which cites them from elsewhere.

This data set concerns monocytes and activated lamina propria T cells. The note with it: Crohn's disease patients; Van den Brande et al. 2003.

On to Etanercept, for which the induction of apoptosis result is on record as “does not induce cell apoptosis”. For “infliximab: chimeric monoclonal antibody that binds to and neutralizes free and bound TNFα”, the induction of apoptosis result is “induce apoptosis of monocytes and activated lamina propria T cells”.
